The subject of assay [1] is chemotherapy-induced hand-foot syndrome. Nature of the assay: Prevention of chemotherapy-induced hand-foot syndrome in rat models (Table 5). It counts as in vivo, SD rats. As to conditions: Capecitabine 4000 mg/kg once a day; ointment 2% wt; Days 40. Put shortly: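 SD rats (~200 g, 10 per group) received chemotherapy drugs by gavage at 1 mL/100 g, then NO-NSAID ointment or blank ointment was applied to the paws. Hand-foot syndrome incidence was recorded, and control rate was taken as blank-group incidence minus treated-group incidence.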

The next assay has as its system HUVEC cells. As to the kind of experiment: CCK-8 cell viability: alleviation of proliferative toxicity of anti-tumor agents on HUVEC cells (Tables 7-1, 7-2). It counts as cell-based. As to conditions: Homo sapiens, 24 h, NO-NSAID 100 μM, percentage increase in viable cells vs anti-tumor agent alone, read-out: Response rate % (average). The essentials: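 Viability was measured by CCK-8 after 24-48 h of culture. Cells received anti-tumor agent in DMSO with or without co-added NO-NSAID (dissolved in ethanol or sterile water), and results were corrected against the matching NO-NSAID solvent control.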

Where two headings read alike, the source gives them in different places.

Take `CC(=O)Oc1ccccc1C(=O)OCc1no[n+]([O-])c1C(N)=O` [Compound A6]: the Control rate in assay [1] is reported as 42.86%. In addition, the activation at 100 µM with HUVEC cells (Afatinib (10 μM)) was 45%; in the assay with HUVEC cells (Anlotinib (5 μM)), 50%; in the assay with HUVEC cells (Apatinib (10 μM)) it was 41%; in the assay with HUVEC cells (Axitinib (10 μM)) it was 22%; with HUVEC cells (Cabozantinib (5 μM)), 0%; in the assay on HUVEC cells (Dabrafenib (10 μM)), 21%. The activation at 100 µM in the assay with HUVEC cells (Dacomitinib (5 μM)) turned out to be 75%; in the assay on HUVEC cells (Encorafenib (5 μM)), 51%; in the assay with HUVEC cells (Erdafitinib (10 μM)), 56%; with HUVEC cells (Everolimus (5 μM)), 52%; with HUVEC cells (Famitinib (5 μM)), 66%; in the assay on HUVEC cells (Fruquintinib (10 μM)), 53%. Moreover, the activation at 100 µM in the assay with HUVEC cells (Gefitinib (10 μM)) turned out to be 77%; in the assay with HUVEC cells (Infigratinib (15 μM)) it was 32%; in the assay with HUVEC cells (Lapatinib (5 μM)) it was 41%; with HUVEC cells (Lenvatinib (10 μM)), 23%; in the assay on HUVEC cells (Olmutinib (10 μM)), 28%; with HUVEC cells (Regorafenib (5 μM)), 66%. The activation at 100 µM is 64% in the assay with HUVEC cells (Selumetinib (5 μM)), 24% in the assay with HUVEC cells (Sorafenib (5 μM)), 58% in the assay on HUVEC cells (Sunitinib (5 μM)) and 42% in the assay on HUVEC cells (Vemurafenib (5 μM)).

For the origin of these results see patent US20250170090A1, “METHOD FOR PREVENTING OR TREATING DISEASE OR DISORDER ASSOCIATED WITH ANTINEOPLASTIC AGENT” (ONQUALITY PHARMACEUTICALS CHINA LTD., priority 2022, published 2025).
